The target in one data set is T1, hTRPM8 (Homo sapiens, UniProt Q7Z2W7).
T1 construct: expressed in transfected cells; host or cells: HEK293 (transient, Lipofectamine 3000)
The experiment in a line: Whole-cell patch-clamp of WS-12-evoked currents in HEK293 cells expressing hTRPM8. Type of data set: cell-based. The source says: We first used patch‐clamp to investigate the potency and blockade mechanism of compound 23 inhibiting WS‐12 evoked ionic currents in hTRPM8‐HEK293 cells. […] This blockade activity was reversible as virtually all WS‐12‐evoked ionic current could be recovered upon washout (Fig. 3A, bottom panel), thus preventing a use‐dependent side effect.
To unveil the underlying mechanism of channel blockade (competitive vs noncompetitive) we evaluated the effect of the α‐acyloxy carboxamide 23 on WS‐12 activating potency. For this purpose, we obtained the WS‐12 dose response in the absence and presence of 80 nM compound 23 (corresponding to its IC50 value).
For this purpose, we run 100 ms voltage ramps from −120 to 120 mV activated by WS‐12 in the absence and presence of 80 nM α‐acyloxy carboxamide 23.
(§1) Recording through patch‐clamp techniques was performed on HEK293 cells cultured in DMEM GlutaMax with 10% FBS and 1% P/S. The cell lines were authenticated following the standardization of STR Profiling guidelines (ANSI/ATCC ASN‐0002‐2022) using the CLA Identifier Plus PCR Amplification Kit (Thermo Fisher‐A44660) to analyze 16 highly variant human STRs. The cells were confirmed to be mycoplasma‐free. These cells were transiently transfected with plasmids encoding hTRPV1, hTRPM8, or hTRPA1 using Lipofectamine 3000. Transfected cells were seeded on 12 mm Ø glass coverslips treated with poly‐L‐lysine solution and recorded 2 days post‐transfection. The intracellular pipette solution included (in mM) 150 NaCl, 3 MgCl2, 5 EGTA, and 10 HEPES, pH 7.2 with CsOH, while the extracellular solution contained (in mM) 150 NaCl, 6 CsCl, 1 MgCl2, 1.5 CaCl2, 10 glucose, and 10 HEPES, pH 7.4 with NaOH. An EPC‐10 amplifier with Patchmaster software was used in whole‐cell experiments. Patch pipettes, created from thin‐wall borosilicate capillary glass tubing, were pulled with a Micropipette puller to a final resistance of 2–8 MΩ when filled with the internal solution. Recordings were acquired at 10 kHz and low‐pass filtered at 3 kHz, discarding recordings with leak currents > 200pA or series resistance > 20 MΩ. In voltage‐clamp recordings, cells were held at a constant potential, and the application of modulators was carried out using a gravity‐driven perfusion system. Total currents were normalized to the first current peak evoked by the activating stimuli. To study the effect of compound 23 on TRPM8 voltage dependence, a voltage step protocol from −120 to 120 mV was used with 100 ms steps of 20 mV from a holding potential at 0 mV. Leak currents were not subtracted, and conductance was calculated using the equation: G = I/(V − V r), where I is the measured ionic current, V is the applied voltage, and V r is the reversal potential that for the ionic conditions used was set to 0 mV.
Dose–response relationships for WS‐12 channel activation were normalized to the response of the channel to a saturating concentration of the agonist. Similarly, dose–response curves for blockade activity were normalized with respect to the response in the absence of the blocker. The experimental data were fitted to the Hill equation: Y=Bottom+Top‐Bottom/(1+10^ligand−LogIC50orLogEC50) using PRISM 9 software. Top was fixed to 100, as the unblocked response or the maximal response for WS‐12.

In data set [1] the target is T2, recombinant human TRPM8 stably expressed in HEK293 cells (hTRPM8) (Homo sapiens, UniProt Q7Z2W7).
T2 construct: expressed in transfected cells
The experiment in a line: Ca2+ microfluorimetry screen for agonist/antagonist activity in hTRPM8-HEK293 cells. Type of data set: cell-based. The settings on record: agonists vs WS-12, antagonists vs WS-12 response, read-out: Efficacy (percentage of maximal activation or blockade).

In data set [2] the target is T2, recombinant human TRPM8 stably expressed in HEK293 cells (hTRPM8). Described as above. The class given is cell-based. The settings on record: for Activity (agonist/antagonist) / EC50: hTRPM8-HEK293; for Activity (agonist/antagonist): agonism = compound-induced Ca2+ influx, antagonism = modulation of WS-12-induced Ca2+ influx; for EC50: half of channel activation, N = 3; for EC50 / Hill coefficient: mean ± SD; for Hill coefficient: hTRPM8-HEK293 Ca2+ microfluorimetry dose-response. An excerpt: We first evaluated the series of compounds 20–29 synthesized using the Passerini‐Adamantane reaction. All compounds were screened for channel agonism and antagonism on recombinant human TRPM8 stably expressed in HEK293 cells (hTRPM8‐HEK293) with Ca^2+ microfluorimetry. […] Compound‐induced TRPM8‐mediated Ca^2+ influx was confirmed using untransfected HEK293 cells and the channel blocker AMTB. […] The concentration of compounds to reach half of channel activation (EC50) or to block half‐channel activity evoked by WS‐12 (IC50) are reported in Table 1, along with the percentage of maximal activation or blockade (Efficacy).
Assays were conducted to assess the channel activity of the recombinant hTRPM8 stably expressed in HEK‐293 cells. HEK‐293‐hTRPM8 cells were cultured in a monolayer using a DMEM GlutaMax with 10% FBS and 1% P/S and maintained at 37 °C in 5% CO2. For experiments, cells were prepared and seeded at the indicated densities. To evaluate compound effectiveness against hTRPM8 activity, microfluorometry‐based calcium flux assays were performed using Fluo‐4 NW Ca^2+ dye and fluorescence detection. HEK cell lines expressing hTRPM8 were seeded in 96‐well plates and incubated with the dye‐loading solution. Ion channel activity was measured using a plate reader, and fluorescence intensity changes were recorded following the addition of vehicle, compound at varying concentrations, and antagonist (10 μM AMTB). Data analysis included calculating the Z‐factor for each assay and normalizing compound effects to […]. Data were analyzed to determine the concentration exerting half‐maximal inhibition (IC50) or activation (EC50) of agonist‐induced calcium elevation, using GRAPHPAD PRISM8® software (Boston, MA, USA). All experiments were conducted in triplicate, and results are presented as mean ± standard deviation.

The nature of data set [3]: Metabolic stability and metabolite profile in mouse liver microsomes (MLM). The note with it: phase I metabolites of compound 23 in MLM, LC-HRMS, estimated from total ion current. The class given is in vitro ADME. How it is done:
Because of the lack of systemic activity of compound 23, we evaluated the in vitro plasmatic and hepatic metabolic stability. To this aim, compound 23 was exposed to mouse plasma and mouse liver microsome (MLM) fractions, and the residual substrate was measured after 1 h. Under these conditions, the residual substrate was about 97% and 90% in plasma and microsomes, respectively, denoting that this molecule suffers from mild hydrolysis of the ester group.
Metabolic biotransformation of compound 23 was investigated by tandem high‐resolution mass spectrometry using the software COMPOUND DISCOVERER 3.2™.
The standard incubation mixture (250 μL final volume) was carried out in a 50 mM Tris (tris[hydroxymethyl]aminomethane) buffer (pH 7.4) containing 150 mM KCl, […], 3.3 mM MgCl2, 1.3 mM NADPNa2, 3.3 mM glucose 6‐phosphate, 0.4 units·mL^−1 glucose 6‐phosphate dehydrogenase, acetonitrile as cosolvent (1% of total volume), and the substrate (50 μM). After pre‐equilibration of the mixture, an appropriate volume of MLM suspension was added to give a final protein concentration of 1.0 mg·mL^−1. The mixture was shaken for 60 min at 37 °C using a horizontal shaking thermostatic bath while protecting the samples from light. Control incubations were carried out without the presence of substrate, or NADPH regenerating system, or microsomes. Each incubation was stopped by the addition of 250 μL of ice‐cold acetonitrile, vortexed, and centrifuged at 13 000 r.p.m. for 5 min [68]. The supernatants were analyzed by LC‐UV and LC‐HRMS equipment (see Tables S1 and S2, Fig. S79 for full parameters setting in the Supporting Information).
The metabolic stability of the compound 23 was determined in vitro by measuring the residual peak area after incubation by LC‐UV analysis. Samples were further processed by LC‐HRMS equipment for metabolite profiling. Raw data files were processed using both XCALIBUR® and COMPOUND DISCOVERER 3.2® software (Thermo Scientific) using a customized workflow for the detection and identification of the expected and unknown metabolites (Fig. S80).

The next data set has as its target T3, hTRPA1 (Homo sapiens, UniProt O75762).
T3 construct: expressed in transfected cells; host or cells: HEK293 (transient, Lipofectamine 3000)
Briefly: Whole-cell patch-clamp of AITC-evoked currents in HEK293 cells expressing hTRPA1. The class given is cell-based. The note with it: 5 μM compound, 60 μM AITC, −60 mV. How it is done:
To evaluate receptor selectivity, we investigated the activity of compound 23 on recombinant hTRPV1 and hTRPA1 channels recombinantly expressed in HEK293 cells (Fig. 4). We choose these thermosensory channels because of their structural similarity and expression in peripheral nociceptive terminals. In addition, some ligand cross‐interaction within these channels has been reported.
as §1, with “Total currents were normalized to the first current peak evoked by the activating stimuli. To study the effect of compound 23 on TRPM8 voltage dependence, a voltage step protocol from −120 to 120 mV was used with 100 ms steps of 20 mV from a holding potential at 0 mV.” left out, “mV. […]” for “mV.”

SMILES strings stand for the structures.

T2 sequence (Q7Z2W7 whole entry): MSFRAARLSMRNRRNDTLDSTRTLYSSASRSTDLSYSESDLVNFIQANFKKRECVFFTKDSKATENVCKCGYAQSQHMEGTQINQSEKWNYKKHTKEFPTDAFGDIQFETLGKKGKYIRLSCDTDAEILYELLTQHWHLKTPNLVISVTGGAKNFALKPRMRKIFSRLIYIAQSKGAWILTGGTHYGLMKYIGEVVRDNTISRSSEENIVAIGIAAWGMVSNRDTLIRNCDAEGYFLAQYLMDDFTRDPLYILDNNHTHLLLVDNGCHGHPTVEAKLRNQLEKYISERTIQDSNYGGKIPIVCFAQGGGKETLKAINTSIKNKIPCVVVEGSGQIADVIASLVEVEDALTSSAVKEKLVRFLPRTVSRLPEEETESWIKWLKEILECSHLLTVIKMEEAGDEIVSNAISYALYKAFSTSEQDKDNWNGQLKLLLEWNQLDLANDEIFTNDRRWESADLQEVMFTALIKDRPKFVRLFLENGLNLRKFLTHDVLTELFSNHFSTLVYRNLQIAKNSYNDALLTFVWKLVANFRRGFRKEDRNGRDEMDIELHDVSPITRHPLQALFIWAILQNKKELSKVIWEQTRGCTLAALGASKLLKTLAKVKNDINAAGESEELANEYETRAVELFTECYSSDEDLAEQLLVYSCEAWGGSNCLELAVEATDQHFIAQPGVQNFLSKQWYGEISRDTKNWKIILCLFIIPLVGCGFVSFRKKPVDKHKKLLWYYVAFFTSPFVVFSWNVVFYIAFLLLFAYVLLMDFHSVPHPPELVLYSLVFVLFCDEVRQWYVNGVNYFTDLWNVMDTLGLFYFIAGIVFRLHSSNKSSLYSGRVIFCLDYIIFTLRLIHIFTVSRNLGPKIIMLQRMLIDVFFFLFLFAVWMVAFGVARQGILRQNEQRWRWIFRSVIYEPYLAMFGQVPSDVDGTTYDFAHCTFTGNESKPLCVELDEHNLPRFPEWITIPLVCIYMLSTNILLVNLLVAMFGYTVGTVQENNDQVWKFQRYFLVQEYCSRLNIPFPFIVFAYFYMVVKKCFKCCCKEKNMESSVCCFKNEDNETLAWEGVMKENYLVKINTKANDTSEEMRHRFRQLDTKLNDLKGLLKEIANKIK
T1 sequence (Q7Z2W7 whole entry): as above
T3 sequence (O75762 whole entry): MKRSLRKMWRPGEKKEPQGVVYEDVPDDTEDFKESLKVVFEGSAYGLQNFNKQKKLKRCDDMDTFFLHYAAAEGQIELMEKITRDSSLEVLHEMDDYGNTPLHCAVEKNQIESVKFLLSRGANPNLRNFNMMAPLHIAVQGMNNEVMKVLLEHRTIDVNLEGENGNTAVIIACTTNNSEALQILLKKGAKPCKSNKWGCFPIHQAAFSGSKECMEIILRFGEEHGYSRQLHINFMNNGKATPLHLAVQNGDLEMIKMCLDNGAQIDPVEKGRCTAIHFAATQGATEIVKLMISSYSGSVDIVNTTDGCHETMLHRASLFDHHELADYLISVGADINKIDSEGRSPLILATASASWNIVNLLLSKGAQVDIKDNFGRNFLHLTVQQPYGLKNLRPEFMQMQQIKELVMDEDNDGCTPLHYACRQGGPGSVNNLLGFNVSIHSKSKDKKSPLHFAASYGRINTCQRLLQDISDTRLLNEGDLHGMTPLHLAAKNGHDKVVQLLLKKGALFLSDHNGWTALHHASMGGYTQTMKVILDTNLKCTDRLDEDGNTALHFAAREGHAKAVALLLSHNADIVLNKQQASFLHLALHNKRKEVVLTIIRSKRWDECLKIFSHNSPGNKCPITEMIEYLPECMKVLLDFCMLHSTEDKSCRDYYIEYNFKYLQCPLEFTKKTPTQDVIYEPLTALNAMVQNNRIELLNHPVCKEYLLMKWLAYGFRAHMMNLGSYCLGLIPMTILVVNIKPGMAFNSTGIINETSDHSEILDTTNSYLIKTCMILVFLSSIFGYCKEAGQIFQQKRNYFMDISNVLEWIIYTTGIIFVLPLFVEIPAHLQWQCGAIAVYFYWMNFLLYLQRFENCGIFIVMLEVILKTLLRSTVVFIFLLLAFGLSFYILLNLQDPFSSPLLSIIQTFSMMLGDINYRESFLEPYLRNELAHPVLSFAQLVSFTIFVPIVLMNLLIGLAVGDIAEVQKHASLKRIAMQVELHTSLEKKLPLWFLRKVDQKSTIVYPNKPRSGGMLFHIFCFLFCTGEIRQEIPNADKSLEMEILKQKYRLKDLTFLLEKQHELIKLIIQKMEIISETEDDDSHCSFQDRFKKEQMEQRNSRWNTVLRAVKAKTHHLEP

On to `Cc1cccc(COc2ccccc2C(=O)N(CCCN)Cc2cccs2)c1` [AMTB, N‐(3‐aminopropyl)‐2‐{[(3‐methylphenyl)methyl]oxy}(20)‐N‐(2‐thienylmethyl)benzamide, reference compound], for which the “voltage dependency of channel blockade” value on hTRPM8 (voltage steps −120 to 120 mV, 0.08 μM compound 23, 10 μM AMTB) is “not voltage dependent”.

The term EC50 denotes the concentration that produces a half-maximal response. The term Hill coefficient denotes the slope factor of the fitted curve. In the case of `O=C(CN1CCN(C(=O)C2CCCC2)CC1)NC12CC3CC(CC(C3)C1)C2` [Compound 43, N‐((3S,5S,7S)‐adamantan‐1‐yl)‐2‐(4‐(cyclopentanecarbonyl)piperazin‐1‐yl)acetamide], the Emax in data set [1] was determined as 82%. Moreover, in data set [2] (hTRPM8-HEK293, EC50 comparison), the “fold lower agonist potency compared with α‐aminoacyl amide 32” value is above 10 fold. Moreover, in data set [2], the “Activity (agonist/antagonist)” value is on record as “TRPM8 agonist”, the EC50 was 9.3 ± 1.5 µM and the Hill coefficient was 0.6 ± 1.8.

In the case of `O=C(CN1CCN(C(=O)Cc2ccccc2)CC1)NC12CC3CC(CC(C3)C1)C2` [Compound 44, N‐((3S,5S,7S)‐adamantan‐1‐yl)‐2‐(4‐(2‐phenylacetyl)piperazin‐1‐yl)acetamide], the Emax in data set [1] is 69%. Moreover, in data set [2], the “Activity (agonist/antagonist)” value is listed as “Agonist”, the EC50 was found to be 9.6 ± 1.5 µM and the Hill coefficient was 0.7 ± 4.0.

Turning to `CC(=O)N1CCN(CC(=O)NC23CC4CC(CC(C4)C2)C3)CC1` [Compound 45, 2‐(4‐acetylpiperazin‐1‐yl)‐N‐((3S,5S,7S)‐adamantan‐1‐yl)acetamide], the Emax in data set [1] worked out at 54%. For the same compound, in data set [2], the “Activity (agonist/antagonist)” value was “Agonist”, the 50% effective concentration (EC50) came out at 2.3 ± 1.6 µM and the Hill coefficient came to 0.7 ± 2.1.

Regarding `O=C(CO)NC12CC3CC(CC(C3)C1)C2` [Compound M1a], in data set [3], the Metabolite relative abundancy was 18.7%.

`CC(C)c1ccc(NC(=O)Cn2cnc3c2c(=O)n(C)c(=O)n3C)cc1` [HC030031, 2‐(1,3‐Dimethyl‐2,6‐dioxo‐1,2,3,6‐tetrahydro‐7H‐purin‐7‐yl)‐N‐(4‐isopropylphenyl)acetamide, reference compound]: on hTRPA1, the “block of hTRPA1‐evoked (AITC) current” value is on record as “completely abrogated”.

For the compound `COc1ccc(NC(=O)[C@@H]2C[C@H](C)CC[C@H]2C(C)C)cc1` [WS‐12, (1R,2S,5R)‐N‐(4‐methoxyphenyl)‐5‐methyl‐2‐(propan‐2‐yl)cyclohexane‐1‐carboxamide, reference compound], the “WS‐12 Hill coefficient in the absence of compound 23” value at hTRPM8 (patch-clamp) came out at 1.17. Moreover, the “WS‐12 Hill coefficient in the presence of compound 23” value at hTRPM8 (patch-clamp, 0.08 μM compound 23) was 0.95. Further, the EC50 on hTRPM8 (patch-clamp, n = 18, read-out: WS‐12 EC50 in the absence of compound 23) turned out to be 3 µM.

The values above are taken from article PMC12220852, “An adamantane‐based ligand as a novel chemical tool for thermosensory TRPM8 channel therapeutic modulation” (The Febs Journal, 2025).
